PubChem BioAssay (NCI)
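Cultured in 96-well plates, cells were exposed to test compound for 48 hours across five concentrations. At the GI50, growth is halved. At the TGI there is no net growth.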

How the values were obtained:
Experiment in all cases: NCI anticancer screen, dose series, 48 h
NCI-H522 lung = test system: NCI-H522 lung
K-562 leukemia = test system: K-562 leukemia
RPMI-8226 leukemia = test system: RPMI-8226 leukemia
SF-268 CNS = test system: SF-268 CNS
SK-MEL-5 melanoma = test system: SK-MEL-5 melanoma
HL-60(TB) leukemia = test system: HL-60(TB) leukemia
SK-MEL-28 melanoma = test system: SK-MEL-28 melanoma
HCC-2998 colon = test system: HCC-2998 colon
SNB-75 CNS = test system: SNB-75 CNS
MDA-MB-435 = test system: MDA-MB-435
OVCAR-3 ovarian = test system: OVCAR-3 ovarian
T-47D breast = test system: T-47D breast
MDA-MB-231 breast = test system: MDA-MB-231 breast
HCT-116 colon = test system: HCT-116 colon
PC-3 prostate = test system: PC-3 prostate
SF-295 CNS = test system: SF-295 CNS
NCI-H23 lung = test system: NCI-H23 lung
OVCAR-5 ovarian = test system: OVCAR-5 ovarian
SK-OV-3 ovarian = test system: SK-OV-3 ovarian
MCF7 breast = test system: MCF7 breast
MALME-3M melanoma = test system: MALME-3M melanoma
UACC-62 melanoma = test system: UACC-62 melanoma
KM12 colon = test system: KM12 colon
HS 578T breast = test system: HS 578T breast
EKVX NSCLC = test system: EKVX NSCLC
SN12C renal = test system: SN12C renal
SF-539 CNS = test system: SF-539 CNS
RXF 393 renal = test system: RXF 393 renal
TK-10 renal = test system: TK-10 renal
SW-620 colon = test system: SW-620 colon
HOP-92 NSCLC = test system: HOP-92 NSCLC
CCRF-CEM leukemia = test system: CCRF-CEM leukemia
DU-145 prostate = test system: DU-145 prostate
SK-MEL-2 melanoma = test system: SK-MEL-2 melanoma
HOP-62 NSCLC = test system: HOP-62 NSCLC
OVCAR-4 ovarian = test system: OVCAR-4 ovarian
HCT-15 colon = test system: HCT-15 colon
OVCAR-8 ovarian = test system: OVCAR-8 ovarian
HT29 colon = test system: HT29 colon
M14 melanoma = test system: M14 melanoma
MDA-MB-468 breast = test system: MDA-MB-468 breast
SNB-19 CNS = test system: SNB-19 CNS

## CN(CCSSCCN1CCOCC1)C(=O)Oc1cc2c(c3ccccc13)[C@H](CCl)CN2C(=O)c1cc2cc(OCCCN3CCC3)ccc2[nH]1
NCI-H522 lung
  GI50: 273 nM
  TGI: 1020 nM
K-562 leukemia
  GI50: 75.1 nM
  TGI: 2670 nM
RPMI-8226 leukemia
  GI50: 473 nM
  TGI: 5180 nM
SF-268 CNS
  GI50: 24.4 nM
  TGI: 849 nM
SK-MEL-5 melanoma
  GI50: 6.32 nM
  TGI: 32.1 nM
HL-60(TB) leukemia
  GI50: 131 nM
  TGI: 1400 nM
SK-MEL-28 melanoma
  GI50: 29.1 nM
  TGI: 66.7 nM
HCC-2998 colon
  GI50: 27 nM
  TGI: 102 nM
SNB-75 CNS
  GI50: 38 nM
  TGI: 173 nM
MDA-MB-435
  GI50: 36.7 nM
  TGI: 104 nM
OVCAR-3 ovarian
  GI50: 236 nM
  TGI: 2380 nM
T-47D breast
  GI50: 287 nM
  TGI: 1700 nM
MDA-MB-231 breast
  GI50: 71.1 nM
  TGI: 178 nM
HCT-116 colon
  GI50: 45.2 nM
  TGI: 5040 nM
PC-3 prostate
  GI50: 39.6 nM
  TGI: 1770 nM
SF-295 CNS
  GI50: 3.04 nM
  TGI: 10.8 nM
NCI-H23 lung
  GI50: 10.1 nM
  TGI: 43.3 nM
OVCAR-5 ovarian
  GI50: 67.5 nM
  TGI: 266 nM
SK-OV-3 ovarian
  GI50: 8.67 nM
  TGI: 101 nM
MCF7 breast
  GI50: 7.52 nM
  TGI: 2640 nM
MALME-3M melanoma
  GI50: 48.1 nM
  TGI: 123 nM
UACC-62 melanoma
  GI50: 6.25 nM
  TGI: 32.1 nM
KM12 colon
  GI50: 30.6 nM
  TGI: 5430 nM
HS 578T breast
  GI50: 178 nM
  TGI: 1100 nM
EKVX NSCLC
  GI50: 42 nM
  TGI: 134 nM
SN12C renal
  GI50: 64.9 nM
  TGI: 1440 nM
SF-539 CNS
  GI50: 51.3 nM
  TGI: 123 nM
RXF 393 renal
  GI50: 40.6 nM
  TGI: 82.9 nM
TK-10 renal
  GI50: 971 nM
  TGI: 5810 nM
SW-620 colon
  GI50: 46.4 nM
  TGI: 2700 nM
HOP-92 NSCLC
  GI50: 382 nM
  TGI: 1440 nM
CCRF-CEM leukemia
  GI50: 102 nM
  TGI: 9890 nM
DU-145 prostate
  GI50: 11.9 nM
  TGI: 2980 nM
SK-MEL-2 melanoma
  GI50: 49.4 nM
  TGI: 95.9 nM
HOP-62 NSCLC
  GI50: 2.51 nM
  TGI: 28.8 nM
OVCAR-4 ovarian
  GI50: 615 nM
  TGI: 2280 nM
HCT-15 colon
  GI50: 57.4 nM
  TGI: 642 nM
OVCAR-8 ovarian
  GI50: 24.7 nM
  TGI: 136 nM
HT29 colon
  GI50: 69.9 nM
  TGI: 25000 nM
M14 melanoma
  GI50: 10.1 nM
  TGI: 42.6 nM
MDA-MB-468 breast
  GI50: 40.2 nM
  TGI: 173 nM
SNB-19 CNS
  GI50: 6.65 nM
  TGI: 127 nM
